According to patent US10072026B2, “Crystalline form of 3-((1R,3s,5S)-3-((7-((5-methyl-1H-pyrazol-3-yl)amino)-1,6-naphthyridin-5-yl)amino)-8-azabicyclo[3.2.1]octan-8-yl)propanenitrile” (priority 2015, dated 2018):
Like-named read-outs stand apart in the source and are kept apart here.

Experiments:
[1] = system: IL-4 induced STAT6 phosphorylation in THP-1 human monocytic cells; assay: Cellular JAK potency assay, THP-1
[2] = system: IL-13 induced STAT6 phosphorylation in BEAS-2B human lung epithelial cells; assay: AlphaScreen cellular JAK potency assay, BEAS-2B
JAK2 = JAK2 (Homo sapiens (Human), UniProt O60674); assay: LanthaScreen JAK biochemical assay (JAK2)
JAK1 = JAK1 (Homo sapiens (Human), UniProt P23458); assay: LanthaScreen JAK biochemical assay (JAK1)
[3] = IL-4 induced STAT6 phosphorylation, THP-1 cells
[4] = IL-13 induced STAT6 phosphorylation, BEAS-2B cells
[5] = Homo sapiens, THP-1, read-out: THP-1 IL4 pIC50 (converted)
[6] = Homo sapiens, BEAS-2B, read-out: BEAS2B pIC50 (converted)
[7] = THP-1 cells, IL-4 induced STAT6 phosphorylation
[8] = BEAS-2B cells, IL-13 induced STAT6 phosphorylation

JAK1, sequence (P23458 whole entry): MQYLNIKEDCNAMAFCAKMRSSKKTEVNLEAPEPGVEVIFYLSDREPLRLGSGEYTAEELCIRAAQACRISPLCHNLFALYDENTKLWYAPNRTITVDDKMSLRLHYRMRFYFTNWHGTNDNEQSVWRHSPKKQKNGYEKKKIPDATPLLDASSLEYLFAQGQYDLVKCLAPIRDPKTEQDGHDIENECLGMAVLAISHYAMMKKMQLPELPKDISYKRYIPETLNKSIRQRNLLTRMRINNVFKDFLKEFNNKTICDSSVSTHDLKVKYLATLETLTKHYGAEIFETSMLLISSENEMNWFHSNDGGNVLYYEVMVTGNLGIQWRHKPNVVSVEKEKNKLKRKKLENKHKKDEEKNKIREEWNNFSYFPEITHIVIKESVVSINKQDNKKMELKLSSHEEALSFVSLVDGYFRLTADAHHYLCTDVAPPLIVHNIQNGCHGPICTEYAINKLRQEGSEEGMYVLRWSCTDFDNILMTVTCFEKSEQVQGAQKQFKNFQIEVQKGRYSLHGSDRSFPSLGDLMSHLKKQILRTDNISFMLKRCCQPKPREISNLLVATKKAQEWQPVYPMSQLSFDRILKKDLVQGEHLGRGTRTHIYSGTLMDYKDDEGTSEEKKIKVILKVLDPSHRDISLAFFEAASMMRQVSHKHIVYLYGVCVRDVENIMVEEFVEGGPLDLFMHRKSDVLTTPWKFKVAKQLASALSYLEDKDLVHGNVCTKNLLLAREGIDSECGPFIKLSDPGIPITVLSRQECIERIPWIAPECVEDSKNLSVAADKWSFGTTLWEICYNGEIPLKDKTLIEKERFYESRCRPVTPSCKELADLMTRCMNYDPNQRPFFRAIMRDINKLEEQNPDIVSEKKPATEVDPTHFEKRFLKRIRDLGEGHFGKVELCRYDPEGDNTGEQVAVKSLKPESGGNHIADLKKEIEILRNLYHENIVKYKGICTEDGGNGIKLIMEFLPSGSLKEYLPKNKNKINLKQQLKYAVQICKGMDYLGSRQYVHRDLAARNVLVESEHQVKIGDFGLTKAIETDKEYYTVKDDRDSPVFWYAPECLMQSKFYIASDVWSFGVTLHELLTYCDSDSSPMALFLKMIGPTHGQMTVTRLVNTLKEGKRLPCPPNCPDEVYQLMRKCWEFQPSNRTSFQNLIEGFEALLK
JAK2, sequence (O60674 whole entry): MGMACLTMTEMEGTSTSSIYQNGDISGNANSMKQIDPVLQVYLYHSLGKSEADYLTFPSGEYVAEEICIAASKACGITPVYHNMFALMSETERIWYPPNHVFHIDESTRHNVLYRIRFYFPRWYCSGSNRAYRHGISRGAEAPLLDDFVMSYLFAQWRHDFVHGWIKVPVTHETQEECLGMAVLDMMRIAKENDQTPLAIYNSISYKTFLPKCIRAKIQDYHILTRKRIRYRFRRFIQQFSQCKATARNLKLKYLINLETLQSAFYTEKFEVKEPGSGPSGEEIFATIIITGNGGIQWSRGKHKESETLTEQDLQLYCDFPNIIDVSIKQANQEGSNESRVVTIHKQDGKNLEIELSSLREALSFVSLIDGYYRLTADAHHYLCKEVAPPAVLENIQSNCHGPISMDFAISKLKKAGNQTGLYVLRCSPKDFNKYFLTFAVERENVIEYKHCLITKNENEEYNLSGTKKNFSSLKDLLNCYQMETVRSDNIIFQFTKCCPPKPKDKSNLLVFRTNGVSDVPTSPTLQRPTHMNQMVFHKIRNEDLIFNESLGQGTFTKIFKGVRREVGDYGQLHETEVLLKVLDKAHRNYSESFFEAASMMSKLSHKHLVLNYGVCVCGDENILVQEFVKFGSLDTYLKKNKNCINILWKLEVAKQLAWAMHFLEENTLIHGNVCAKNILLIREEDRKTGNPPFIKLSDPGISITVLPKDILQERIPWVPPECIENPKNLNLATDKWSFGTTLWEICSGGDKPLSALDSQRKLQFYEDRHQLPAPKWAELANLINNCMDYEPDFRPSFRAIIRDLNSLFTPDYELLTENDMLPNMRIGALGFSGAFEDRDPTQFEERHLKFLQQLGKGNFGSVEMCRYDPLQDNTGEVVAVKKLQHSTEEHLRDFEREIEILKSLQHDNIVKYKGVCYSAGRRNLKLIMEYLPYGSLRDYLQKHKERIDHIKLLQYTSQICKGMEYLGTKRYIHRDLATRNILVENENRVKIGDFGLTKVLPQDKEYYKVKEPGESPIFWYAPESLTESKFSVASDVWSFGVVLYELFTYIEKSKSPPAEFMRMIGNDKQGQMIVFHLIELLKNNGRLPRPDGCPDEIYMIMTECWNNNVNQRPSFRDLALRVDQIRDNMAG

Row | SMILES | BEAS2B pIC50 [2, 4] | JAK 2 (pKi) (JAK2) | JAK 1 (pKi) (JAK1) | THP-1 IL4 pIC50 [1, 7] | also measured
1 | Cc1cc(Nc2cc3ncccc3c(N[C@@H]3C[C@H]4CCC[C@@H](C3)N4Cc3cccnc3)n2)n[nH]1 [Example 1-47] | A (A represents a pEC50 value≥7.5 (EC50≤32 nM)) | A (A represents a pKi value≥10 (Ki≤0.1 nM)) |  |  | THP-1 IL4 pIC50 [1, 3]: A (A represents a pEC50 value≥7.5 (EC50≤32 nM))
2 | Cc1cc(Nc2cc3ncccc3c(N[C@@H]3C[C@H]4CCC[C@@H](C3)N4Cc3ccc(C#N)nc3)n2)n[nH]1 [Example 1-54] | B (B represents a pEC50 value between 6.7 and 7.5 (EC50 between 200 nM and 32 nM)) |  |  |  | 
3 | Cc1cc(Nc2cc3ncccc3c(N[C@@H]3C[C@H]4CCC[C@@H](C3)N4C(=O)c3ccccc3)n2)n[nH]1 [Example 2-25] | A (A represents a pEC50 value≥7.5 (EC50≤32 nM)) | A (A represents a pKi value≥10 (Ki≤0.1 nM)) |  |  | THP-1 IL4 pIC50 [1, 3]: A (A represents a pEC50 value≥7.5 (EC50≤32 nM))
4 | Cc1cc(Nc2cc3ncccc3c(N[C@@H]3C[C@H]4CCC[C@@H](C3)N4S(=O)(=O)N3CCCC3)n2)n[nH]1 [Example 4-27] | A (A represents a pEC50 value≥7.5 (EC50≤32 nM)) |  |  |  | THP-1 IL4 pIC50 [1, 3]: A (A represents a pEC50 value≥7.5 (EC50≤32 nM))
5 | Cc1cc(Nc2cc3ncccc3c(N[C@@H]3C[C@H]4CCC[C@@H](C3)N4S(=O)(=O)N3CCC3)n2)n[nH]1 [Example 4-29] | A (A represents a pEC50 value≥7.5 (EC50≤32 nM)) |  | A (A represents a pKi value≥10 (Ki≤0.1 nM)) |  | THP-1 IL4 pIC50 [1, 3]: A (A represents a pEC50 value≥7.5 (EC50≤32 nM))
6 | COc1ccc2c(N[C@@H]3C[C@H]4CC[C@@H](C3)N4CCCC#N)nc(Nc3cc(C)[nH]n3)cc2n1 [Example 5-2] | A (A represents a pEC50 value≥7.5 (EC50≤32 nM)) |  | B (B represents a pKi value between 9 and 10 (Ki between 1 nM and 0.1 nM)) |  | THP-1 IL4 pIC50 [1, 3]: B (B represents a pEC50 value between 6.7 and 7.5 (EC50 between 200 nM and 32 nM))
7 | COc1ccc2c(N[C@@H]3C[C@H]4CC[C@@H](C3)N4CC(C)C)nc(Nc3cc(C)[nH]n3)cc2n1 [Example 5-4] | A (A represents a pEC50 value≥7.5 (EC50≤32 nM)) |  | B (B represents a pKi value between 9 and 10 (Ki between 1 nM and 0.1 nM)) |  | THP-1 IL4 pIC50 [1, 3]: A (A represents a pEC50 value≥7.5 (EC50≤32 nM))
8 | CCS(=O)(=O)N1[C@@H]2CC[C@H]1C[C@H](Nc1nc(Nc3cc(C)[nH]n3)cc3nc(CN4CCOCC4)ccc13)C2 [Example 5-16] |  |  |  |  | IC50 [1, 5]: 31.6 to 200 nM; IC50 [2, 6]: 31.6 to 200 nM
9 | C=CCOC(=O)N1[C@@H]2CC[C@H]1C[C@H](Nc1nc(Nc3cc(C)[nH]n3)cc3nc(CN4CCOCC4)ccc13)C2 [Example 5-17] | A (A represents a pEC50 value≥7.5 (EC50≤32 nM)) |  |  |  | THP-1 IL4 pIC50 [1, 3]: B (B represents a pEC50 value between 6.7 and 7.5 (EC50 between 200 nM and 32 nM))
10 | Cc1cc(Nc2cc3nc(CN4CCOCC4)ccc3c(N[C@@H]3C[C@H]4CC[C@@H](C3)N4S(=O)(=O)N3CCC3)n2)n[nH]1 [Example 5-21] |  |  |  |  | IC50 [1, 5]: < 31.6 nM; IC50 [2, 6]: < 31.6 nM
11 | Cc1cc(Nc2cc3nc(CN4CCOCC4)ccc3c(N[C@@H]3C[C@H]4CCC[C@@H](C3)N4S(=O)(=O)c3cccnc3)n2)n[nH]1 [Example 5-27] | A (A represents a pEC50 value≥7.5 (EC50≤32 nM)) |  |  |  | THP-1 IL4 pIC50 [1, 3]: A (A represents a pEC50 value≥7.5 (EC50≤32 nM))
12 | COc1cnc2cc(Nc3cc(C)[nH]n3)nc(N[C@@H]3C[C@H]4CC[C@@H](C3)N4CC(C)C)c2c1 [Example 6-14] |  |  | B (B represents a pKi value between 9 and 10 (Ki between 1 nM and 0.1 nM)) | A (A represents a pEC50 value≥7.5 (EC50≤32 nM)) | BEAS2B pIC50 [2, 8]: A (A represents a pEC50 value≥7.5 (EC50≤32 nM))
13 | COc1cnc2cc(Nc3cc(C)[nH]n3)nc(N[C@@H]3C[C@H]4CC[C@@H](C3)N4CCCF)c2c1 [Example 6-16] |  |  | B (B represents a pKi value between 9 and 10 (Ki between 1 nM and 0.1 nM)) | B (B represents a pEC50 value between 6.7 and 7.5 (EC50 between 200 nM and 32 nM)) | BEAS2B pIC50 [2, 8]: B (B represents a pEC50 value between 6.7 and 7.5 (EC50 between 200 nM and 32 nM))
14 | COc1cnc2cc(Nc3cc(C)[nH]n3)nc(N[C@@H]3C[C@H]4CC[C@@H](C3)N4CC(F)(F)F)c2c1 [Example 6-17] |  |  |  |  | IC50 [1, 5]: < 31.6 nM; IC50 [2, 6]: < 31.6 nM; Ki (JAK1; read-out: JAK 1 (pKi) (converted)): 0.1 to 1 nM
15 | Cc1cc(Nc2cc3ncc(S(C)(=O)=O)cc3c(N[C@@H]3C[C@H]4CC[C@@H](C3)N4Cc3ccncc3)n2)n[nH]1 [Example 6-59] |  | A (A represents a pKi value≥10 (Ki≤0.1 nM)) |  |  | BEAS2B pIC50 [2, 8]: C (C represents a pEC50 value<6.7 (EC50>200 nM))
16 | CCC(C)C(=O)N1[C@@H]2CC[C@H]1C[C@H](Nc1nc(Nc3cc(C)[nH]n3)cc3nccc(OC)c13)C2 (stereo partly shown) [Example 7-4] |  |  | B (B represents a pKi value between 9 and 10 (Ki between 1 nM and 0.1 nM)) | B (B represents a pEC50 value between 6.7 and 7.5 (EC50 between 200 nM and 32 nM)) | BEAS2B pIC50 [2, 8]: B (B represents a pEC50 value between 6.7 and 7.5 (EC50 between 200 nM and 32 nM))
17 | COc1ccnc2cc(Nc3cc(C)[nH]n3)nc(N[C@@H]3C[C@H]4CC[C@@H](C3)N4C(=O)C(F)F)c12 [Example 7-5] |  |  |  |  | IC50 [1, 5]: 31.6 to 200 nM; IC50 [2, 6]: 31.6 to 200 nM; Ki (JAK1): 0.1 to 1 nM
18 | COc1ccnc2cc(Nc3cc(C)[nH]n3)nc(N[C@@H]3C[C@H]4CC[C@@H](C3)N4CC(F)F)c12 [Example 7-8] |  | B (B represents a pKi value between 9 and 10 (Ki between 1 nM and 0.1 nM)) | B (B represents a pKi value between 9 and 10 (Ki between 1 nM and 0.1 nM)) | B (B represents a pEC50 value between 6.7 and 7.5 (EC50 between 200 nM and 32 nM)) | 
19 | CCS(=O)(=O)N1[C@@H]2CC[C@H]1C[C@H](Nc1nc(Nc3cc(C)[nH]n3)c(F)c3ncccc13)C2 [Example 8-3] |  | B (B represents a pKi value between 9 and 10 (Ki between 1 nM and 0.1 nM)) | B (B represents a pKi value between 9 and 10 (Ki between 1 nM and 0.1 nM)) | A (A represents a pEC50 value≥7.5 (EC50≤32 nM)) | 
20 | Cc1cc(Nc2nc(N[C@@H]3C[C@H]4CC[C@@H](C3)N4S(=O)(=O)c3cccnc3)c3cccnc3c2F)n[nH]1 [Example 8-4] |  |  | B (B represents a pKi value between 9 and 10 (Ki between 1 nM and 0.1 nM)) | B (B represents a pEC50 value between 6.7 and 7.5 (EC50 between 200 nM and 32 nM)) | BEAS2B pIC50 [2, 8]: B (B represents a pEC50 value between 6.7 and 7.5 (EC50 between 200 nM and 32 nM))
21 | Cc1cc(Nc2nc(N[C@@H]3C[C@H]4CC[C@@H](C3)N4S(=O)(=O)c3cncc(F)c3)c3cccnc3c2F)n[nH]1 [Example 8-5] |  |  | B (B represents a pKi value between 9 and 10 (Ki between 1 nM and 0.1 nM)) | B (B represents a pEC50 value between 6.7 and 7.5 (EC50 between 200 nM and 32 nM)) | BEAS2B pIC50 [2, 8]: A (A represents a pEC50 value≥7.5 (EC50≤32 nM))
22 | Cc1cnc2c(F)c(Nc3cc(C)[nH]n3)nc(N[C@@H]3C[C@H]4CC[C@@H](C3)N4S(C)(=O)=O)c2c1 [Example 8-17] |  | A (A represents a pKi value≥10 (Ki≤0.1 nM)) | A (A represents a pKi value≥10 (Ki≤0.1 nM)) | B (B represents a pEC50 value between 6.7 and 7.5 (EC50 between 200 nM and 32 nM)) | 
23 | Cc1cnc2c(F)c(Nc3cc(C)[nH]n3)nc(N[C@@H]3C[C@H]4CC[C@@H](C3)N4CCC#N)c2c1 [Example 8-18] |  | B (B represents a pKi value between 9 and 10 (Ki between 1 nM and 0.1 nM)) | B (B represents a pKi value between 9 and 10 (Ki between 1 nM and 0.1 nM)) | B (B represents a pEC50 value between 6.7 and 7.5 (EC50 between 200 nM and 32 nM)) | 
24 | Cc1cnc2c(F)c(Nc3cc(C)[nH]n3)nc(N[C@@H]3C[C@H]4CC[C@@H](C3)N4S(=O)(=O)N3CC(C#N)C3)c2c1 [Example 8-19] |  | B (B represents a pKi value between 9 and 10 (Ki between 1 nM and 0.1 nM)) | B (B represents a pKi value between 9 and 10 (Ki between 1 nM and 0.1 nM)) | C (C represents a pEC50 value<6.7 (EC50>200 nM)) | 
25 | Cc1cnc2c(F)c(Nc3cc(C)[nH]n3)nc(N[C@@H]3C[C@H]4CCC[C@@H](C3)N4CCC#N)c2c1 [Example 8-21] |  | B (B represents a pKi value between 9 and 10 (Ki between 1 nM and 0.1 nM)) | B (B represents a pKi value between 9 and 10 (Ki between 1 nM and 0.1 nM)) | B (B represents a pEC50 value between 6.7 and 7.5 (EC50 between 200 nM and 32 nM)) | 
26 | CCS(=O)(=O)N1[C@@H]2CCC[C@H]1C[C@H](Nc1nc(Nc3cc(C)[nH]n3)cc3ncccc13)C2 [Example 10, N^5-((1R,3s,5S)-9-(ethylsulfonyl)-9-azabicyclo[3.3.1]nonan-3-yl)-N^7-(5-methyl-1H-pyrazol-3-yl)-1,6-naphthyridine-5,7-diamine] |  |  |  |  | IC50 [1, 5]: < 31.6 nM; IC50 [2, 6]: < 31.6 nM
27 | Cc1cc(Nc2cc3nc(CN4CCOCC4)ccc3c(N[C@@H]3C[C@H]4CC[C@@H](C3)N4CC(F)(F)F)n2)n[nH]1 [Example 15, N^7-(5-methyl-1H-pyrazol-3-yl)-2-(morpholinomethyl)-N^5-((1R,3s,5S)-8-(2,2,2-trifluoroethyl)-8-azabicyclo[3.2.1]octan-3-yl)-1,6-naphthyridine-5,7-diamine] |  |  |  |  | IC50 [1, 5]: < 31.6 nM; IC50 [2, 6]: < 31.6 nM
28 | CNC(=O)CN1[C@@H]2CCC[C@H]1C[C@H](Nc1nc(Nc3cc(C)[nH]n3)cc3ncccc13)C2 [Example 17, N-methyl-2-((1R,3s,5S)-3-((7-((5-methyl-1H-pyrazol-3-yl)amino)-1,6-naphthyridin-5-yl)amino)-9-azabicyclo[3.3.1]nonan-9-yl)acetamide] |  |  |  |  | IC50 [1, 5]: 31.6 to 200 nM; IC50 [2, 6]: 31.6 to 200 nM
